Laboratory results: paper PMC2074783, “Metabolism and pharmacokinetics of the anti-tumour agent 2,3,5-trimethyl-6-(3-pyridylmethyl)1,4-benzoquinone (CV-6504)” (British Journal of Cancer, 1996)
pIC50: −log10 of the molar value.

What was measured:
MAC13 tumour = test: Growth of the MAC13 tumour in vivo; design: species or system NMRI mice; conditions: 50 mg kg-1 daily p.o.; for Anti-tumour activity in comparison with the 1-glucuronide and 4-sulphate: MAC13 tumour, difference not significant
Source text: (§1) Bridsh Journal of Cancer (1996) 74, 1349-1353 ? 1996 Stockton Press All rights reserved 0007-0920/96 $12.00 Metabolism and pharmacokinetics of the anti-tumour agent 2,3,5- trimethyl-6-(3-pyridylmethyl) 1,4-benzoquinone (CV-6504) H J Hussey and M J Tisdale Pharmaceutical Sciences Institute, Aston University, Birmingham B4 7ET, UK. Summary 2,3,5-Trimethyl-6-(3-pyridylmethyl)1,4-benzoquinone (CV-6504) is an effective inhibitor of the growth of established murine adenocarcinomas (MACs) and is shortly to enter clinical investigation. When administered to mice bearing the MAC16 tumour, CV-6504 rapidly disappeared from the plasma and tissues and there was an accumulation of the sulphate and glucuronide metabolites. […] The concentration of glucuronide and sulphate metabolites in both tumour and liver decreased with time. […] Although the sulphate and glucuronide conjugates of CV-6504 were ineffective inhibitors of the growth of MAC13 cells in vitro at concentrations up to 100 µM, in vivo at a concentration of 50 mg kg-' day-' the conjugates produced a similar anti-tumour effect to CV-6504 at a concentration of 5 mg kg-} day-l. […] Using MAC13 cells ex vivo, CV-6504 inhibited conversion of arachidonic acid to 5-, 12- and 15- hydroxyeicosatetraenoic acids (HETE). The percentage reduction in formation of 12- and 15-HETE exceeded that of 5-HETE. Inhibition of HETE formation may be responsible for the anti-tumour activity of CV-6504. […] Our own studies have identified the 5-lipoxygenase inhibitor (Ohkawa et al., 1991a), 2,3,5-trimethyl-6-(3-pyridyl- methyl)1,4-benzoquinone (CV-6504), as an effective inhibitor of the growth of established murine adenocarcinomas (MAC) in vivo with a therapeutic index of at least 10 (Hussey et al., 1996). […] CV-6504 undergoes rapid reduction by two-electron donating enzymes, such as DT-diaphorase, and the resulting hydroquinone inhibits both 5-lipoxygenase activity and lipid peroxidation on the basis of its antioxidant ability (Ohkawa et al., 199 lb) by reducing the ferric iron in the active site of the enzyme to the ferrous (resting state). Studies on the metabolism of CV-6504 by mice, rats, dogs and monkeys indicate reduction of the quinone ring and subsequent conjugation to yield the 1- and 4-glucuronides and the corresponding sulphates (Takeda Chemical Co., personal communication). […] In the present study the tumour and tissue levels of CV- Correspondence: HJ Hussey Received 4 March 1996; revised 21 May 1996; accepted 29 May 1996 6504 and its glucuronide and sulphate metabolites have been determined after single and consecutive dosing of mice bearing the MAC16 adenocarcinoma. A comparison has also been made between CV-6504 and its glucuronide and sulphate metabolites on tumour growth and metabolism of AA along the lipoxygenase pathways with a view to establishing the mechanism of the anti-tumour effect. Material and methods Pure strain NMRI mice were obtained from our own breeding colony and were fed a rat and mouse breeding diet (Pilsbury's, Birmingham) and water ad libitum. Male animals weighing 20-25 g were transplanted subcutaneously with 1-2 mm3 fragments of the MAC16 or MAC13 tumours by trocar into the right flank. The experiments were initiated when the tumour volume, calculated from the formula: length x (width)2 2 was between 72 and 128 mm3. Tumour dimensions were measured by calipers. Mice bearing the MAC13 tumour were subject to restricted randomisation into groups of nine to receive either CV-6504 (5 mg kg-') or the 1- or 4- glucuronide, or the 1- or 4-sulphate (50 mg kg-'). CV-6504 and the sulphate and glucuronide metabolites were supplied by Takeda Chemical Industries Ltd., Osaka, Japan and were administered p.o. daily in aqueous solution (0.1 ml). Control animals received water alone (0.1 ml). […]

MAC13 cells = test: Growth of MAC13 cells in vitro after 72 h; type: cell-based, murine; conditions: for Inhibition of the growth of MAC13 cells in vitro: concentrations up to 100 µM, 72 h
Source text: as §1, with “calipers.” for “calipers. Mice bearing the MAC13 tumour were subject to restricted randomisation into groups of nine to receive either CV-6504 (5 mg kg-') or the 1- or 4- glucuronide, or the 1- or 4-sulphate (50 mg kg-'). CV-6504 and the sulphate and glucuronide metabolites were supplied by Takeda Chemical Industries Ltd., Osaka, Japan and were administered p.o. daily in aqueous solution (0.1 ml). Control animals received water alone (0.1 ml).”

[1] = Metabolism and tissue levels of [14C]CV-6504 in mice bearing the MAC16 tumour; conditions: male, NMRI, mouse, in vivo, 24 h
Source text: Bridsh Journal of Cancer (1996) 74, 1349-1353 ? 1996 Stockton Press All rights reserved 0007-0920/96 $12.00 Metabolism and pharmacokinetics of the anti-tumour agent 2,3,5- trimethyl-6-(3-pyridylmethyl) 1,4-benzoquinone (CV-6504) H J Hussey and M J Tisdale Pharmaceutical Sciences Institute, Aston University, Birmingham B4 7ET, UK. Summary 2,3,5-Trimethyl-6-(3-pyridylmethyl)1,4-benzoquinone (CV-6504) is an effective inhibitor of the growth of established murine adenocarcinomas (MACs) and is shortly to enter clinical investigation. When administered to mice bearing the MAC16 tumour, CV-6504 rapidly disappeared from the plasma and tissues and there was an accumulation of the sulphate and glucuronide metabolites. […] The concentration of glucuronide and sulphate metabolites in both tumour and liver decreased with time. […] In the present study the tumour and tissue levels of CV- Correspondence: HJ Hussey Received 4 March 1996; revised 21 May 1996; accepted 29 May 1996 6504 and its glucuronide and sulphate metabolites have been determined after single and consecutive dosing of mice bearing the MAC16 adenocarcinoma. […] The experiments were initiated when the tumour volume, calculated from the formula: length x (width)2 2 was between 72 and 128 mm3. Tumour dimensions were measured by calipers. […]

[2] = test system: conversion of arachidonic acid to HETEs in MAC13 cells; test: Lipoxygenase metabolites of arachidonate in MAC13 tumour cells ex vivo; type: cell-based, murine
Source text: as §1

MAC16 cells = test: Inhibition of the growth of MAC16 cells in vitro; type: cell-based, murine; conditions: Mus musculus, tissue culture

For `Cc1c(C)c(OS(=O)(=O)O)c(C)c(Cc2cccnc2)c1O` [4-sulphate], the “Anti-tumour activity against MAC13 tumour in vivo compared with free CV-6504 at 5 mg kg-1 day-1 orally” value (MAC13 tumour) was “similar” and the “Inhibition of the growth of MAC13 cells in vitro” value (“Inhibition” below) (MAC13 cells) was “ineffective”.
In the case of `CC1=C(C)C(=O)C(Cc2cccnc2)=C(C)C1=O` [CV-6504, 2,3,5-Trimethyl-6-(3-pyridylmethyl)1,4-benzoquinone], the “concentration of free CV-6504 in the liver” value [1] was 0.24 µM, the “concentration of free CV-6504 in the tumour” value [1] was 3.3 µM and the pIC50 (MAC13 cells; Mus musculus, MAC13, 72 h, read-out: IC50 for inhibition of growth of MAC13 cells in vitro) was 5.52. For the same compound, the “percentage reduction in formation of 12- and 15-HETE relative to that of 5-HETE” value ([2]; 10 µM, 30 min) was “exceeded”, the 5-HETE production ([2]; 10 µM, 30 min, [3H]AA) was “significantly decreased” and the 11-HETE production ([2]; 10 µM, 30 min, [3H]AA) was “significantly decreased”. For the same compound, the 12-HETE production ([2]; 10 µM, 30 min, [3H]AA) was “significantly decreased”, the 15-HETE production ([2]; 10 µM, 30 min, [3H]AA) was “significantly decreased” and the “total unmetabolised AA” value ([2]; 10 µM, 30 min, [3H]AA) was “significantly decreased”. It also gave a pIC50 (MAC16 cells) of 5.52.
In the case of `Cc1c(C)c(OC2OC(C(=O)O)C(O)C(O)C2O)c(Cc2cccnc2)c(C)c1O` (stereo not shown) [CV-6504-1-glucuronide], the “Anti-tumour activity against MAC13 tumour in vivo compared with free CV-6504 at 5 mg kg-1 day-1 orally” value (MAC13 tumour) was “similar” and the “Inhibition” value (MAC13 cells) was “ineffective”.
With `Cc1c(C)c(OS(=O)(=O)O)c(Cc2cccnc2)c(C)c1O` [CV-6504-1-sulphate] the “Anti-tumour activity against MAC13 tumour in vivo compared with free CV-6504 at 5 mg kg-1 day-1 orally” value (MAC13 tumour) was “similar”, the “Anti-tumour activity in comparison with the 1-glucuronide and 4-sulphate” value (MAC13 tumour) was “slightly reduced” and the “Inhibition” value (MAC13 cells) was “ineffective”. For the same compound, the 12-HETE production ([2]; 100 µM, 30 min) was “significantly reduced”, the 15-HETE production ([2]; 100 µM, 30 min) was “significantly reduced” and the 11-HETE production ([2]; 100 µM, 1 h) was “significantly reduced”. For the same compound, the 5-HETE production ([2]; 100 µM, 2 h) was “significantly reduced”.
With `Cc1c(C)c(OC2OC(C(=O)O)C(O)C(O)C2O)c(C)c(Cc2cccnc2)c1O` (stereo not shown) [CV-6504-4-glucuronide] the “Anti-tumour activity against MAC13 tumour in vivo compared with free CV-6504 at 5 mg kg-1 day-1 orally” value (MAC13 tumour) was “similar”, the “Anti-tumour activity in comparison with the 1-glucuronide and 4-sulphate” value (MAC13 tumour) was “slightly reduced” and the “Inhibition” value (MAC13 cells) was “ineffective”. The 5-HETE production ([2]; 100 µM, 30 min) was “significantly reduced”, the 11-HETE production ([2]; 100 µM, 30 min) was “significantly reduced” and the 12-HETE production ([2]; 100 µM, 30 min) was “significantly reduced”. For the same compound, the 15-HETE production ([2]; 100 µM, 1 h) was “significantly reduced”.
